According to PMC11079024, “Identification of a family of species-selective complex I inhibitors as potential anthelmintics” (Nature Communications, 2024):

The compounds below were run against B. taurus (heart) complex I (Bos taurus, UniProt P03887+P17694+P42026) (assay: biochemical). Details: B. taurus heart mitochondria; estimated from fitted dose-response curves; read-out: B. taurus Complex I IC50.
Assay type: biochemical
How it was run: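 Complex I activity followed as DCIP reduction (600 nm, 30 s reads, 15 min) with 80 μM NADH and 60 μM decylubiquinone in 25 mM KPi pH 7.5 containing 2 μM antimycin A and 2 mM KCN. Freeze-thawed mouse or bovine heart mitochondria at 0.2 mg/mL; initial-rate percent of solvent control, single-point 100 μM or dose-response.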

Sequence of B. taurus (heart) complex I (P03887 whole entry): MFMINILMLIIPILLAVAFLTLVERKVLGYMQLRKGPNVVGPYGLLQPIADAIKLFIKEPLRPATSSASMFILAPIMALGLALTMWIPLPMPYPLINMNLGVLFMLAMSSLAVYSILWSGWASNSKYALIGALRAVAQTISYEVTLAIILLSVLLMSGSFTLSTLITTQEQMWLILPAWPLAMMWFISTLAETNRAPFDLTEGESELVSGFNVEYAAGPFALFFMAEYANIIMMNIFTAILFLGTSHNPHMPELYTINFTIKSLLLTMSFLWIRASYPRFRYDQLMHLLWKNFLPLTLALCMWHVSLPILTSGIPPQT
Sequence of B. taurus (heart) complex I (P17694 34-463): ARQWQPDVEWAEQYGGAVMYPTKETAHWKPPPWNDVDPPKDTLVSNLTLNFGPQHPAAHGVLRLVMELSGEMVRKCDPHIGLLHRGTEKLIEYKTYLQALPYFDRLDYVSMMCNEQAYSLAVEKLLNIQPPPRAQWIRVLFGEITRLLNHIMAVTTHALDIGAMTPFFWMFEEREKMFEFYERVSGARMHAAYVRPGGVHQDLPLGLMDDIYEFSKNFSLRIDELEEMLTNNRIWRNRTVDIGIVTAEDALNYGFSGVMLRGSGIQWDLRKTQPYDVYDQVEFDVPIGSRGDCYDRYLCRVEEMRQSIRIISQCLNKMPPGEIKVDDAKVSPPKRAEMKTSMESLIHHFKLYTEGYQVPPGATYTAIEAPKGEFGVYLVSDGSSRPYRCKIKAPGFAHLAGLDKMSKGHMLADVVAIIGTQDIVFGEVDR
Sequence of B. taurus (heart) complex I (P42026 38-216): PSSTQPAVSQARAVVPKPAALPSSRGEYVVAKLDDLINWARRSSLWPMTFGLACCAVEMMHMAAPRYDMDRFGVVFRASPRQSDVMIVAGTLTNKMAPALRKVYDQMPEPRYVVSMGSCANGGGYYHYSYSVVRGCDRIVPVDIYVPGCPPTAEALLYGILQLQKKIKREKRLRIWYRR

Row | Structure (SMILES) | IC50 [µM]
1 | Cc1ccc(SCCCCn2cnc3ccccc32)cc1 [Compound 7925333] | 7.31
2 | Cc1cccc(OCCn2c(C)nc3ccccc32)c1 [Compound 6285199] | 4.97
3 | C=CCn1c(-c2ccc(N(C)C)cc2)nc2ccccc21 [Compound 6873298] | 21
4 | Cc1nc2ccccc2n1Cc1ccc(C(C)C)cc1 [Compound 7353551] | 1.57
5 | CCn1c(C(C)c2ccc(CC(C)C)cc2)nc2ccccc21 (stereo not drawn) [STK951902] | 12.5

Same assay, conditions: Dose 0.0001 µM; read-out: B. taurus mitochondrial complex I activity

Row | Structure (SMILES) | activity at 0.0001 µM [%]
6 | Cc1ccc(SCCCCn2cnc3ccccc32)cc1 [Compound 7925333] | 90.9
7 | Cc1cccc(OCCn2c(C)nc3ccccc32)c1 [Compound 6285199] | 98.3

Same assay, conditions: Dose 0.0005 µM; read-out: B. taurus mitochondrial complex I activity

Row | Structure (SMILES) | activity at 0.0005 µM [%]
8 | Cc1ccc(SCCCCn2cnc3ccccc32)cc1 [Compound 7925333] | 87.2
9 | Cc1cccc(OCCn2c(C)nc3ccccc32)c1 [Compound 6285199] | 97.3

Same assay, conditions: Dose 0.001 µM; read-out: B. taurus mitochondrial complex I activity

Row | Structure (SMILES) | activity at 0.001 µM [%]
10 | Cc1ccc(SCCCCn2cnc3ccccc32)cc1 [Compound 7925333] | 87.5
11 | Cc1cccc(OCCn2c(C)nc3ccccc32)c1 [Compound 6285199] | 100

Same assay, conditions: Dose 0.0025 µM; read-out: B. taurus mitochondrial complex I activity

Row | Structure (SMILES) | activity at 0.0025 µM [%]
12 | Cc1ccc(SCCCCn2cnc3ccccc32)cc1 [Compound 7925333] | 83.2
13 | Cc1cccc(OCCn2c(C)nc3ccccc32)c1 [Compound 6285199] | 95.3

Same assay, conditions: Dose 0.005 µM; read-out: B. taurus mitochondrial complex I activity

Row | Structure (SMILES) | activity at 0.005 µM [%]
14 | Cc1ccc(SCCCCn2cnc3ccccc32)cc1 [Compound 7925333] | 83.9
15 | Cc1cccc(OCCn2c(C)nc3ccccc32)c1 [Compound 6285199] | 95.1

Same assay, conditions: Dose 0.013 µM; read-out: B. taurus mitochondrial complex I activity

Row | Structure (SMILES) | activity at 0.013 µM [%]
16 | Cc1ccc(SCCCCn2cnc3ccccc32)cc1 [Compound 7925333] | 89.8
17 | Cc1cccc(OCCn2c(C)nc3ccccc32)c1 [Compound 6285199] | 97.1

Same assay, conditions: Dose 0.025 µM; read-out: B. taurus mitochondrial complex I activity

Row | Structure (SMILES) | activity at 0.025 µM [%]
18 | Cc1ccc(SCCCCn2cnc3ccccc32)cc1 [Compound 7925333] | 94.2
19 | Cc1cccc(OCCn2c(C)nc3ccccc32)c1 [Compound 6285199] | 95.3

Same assay, conditions: Dose 0.063 µM; read-out: B. taurus mitochondrial complex I activity

Row | Structure (SMILES) | activity at 0.063 µM [%]
20 | Cc1ccc(SCCCCn2cnc3ccccc32)cc1 [Compound 7925333] | 97.7
21 | Cc1cccc(OCCn2c(C)nc3ccccc32)c1 [Compound 6285199] | 88.5

Same assay, conditions: Dose 0.125 µM; read-out: B. taurus mitochondrial complex I activity

Row | Structure (SMILES) | activity at 0.125 µM [%]
22 | Cc1ccc(SCCCCn2cnc3ccccc32)cc1 [Compound 7925333] | 99.3
23 | Cc1cccc(OCCn2c(C)nc3ccccc32)c1 [Compound 6285199] | 87.7

Same assay, conditions: Dose 0.313 µM; read-out: B. taurus mitochondrial complex I activity

Row | Structure (SMILES) | activity at 0.313 µM [%]
24 | Cc1ccc(SCCCCn2cnc3ccccc32)cc1 [Compound 7925333] | 99.3
25 | Cc1cccc(OCCn2c(C)nc3ccccc32)c1 [Compound 6285199] | 83.8

Same assay, conditions: Dose 0.625 µM; read-out: B. taurus mitochondrial complex I activity

Row | Structure (SMILES) | activity at 0.625 µM [%]
26 | Cc1ccc(SCCCCn2cnc3ccccc32)cc1 [Compound 7925333] | 90.8
27 | Cc1cccc(OCCn2c(C)nc3ccccc32)c1 [Compound 6285199] | 79

Same assay, conditions: Dose 1.5 µM; read-out: B. taurus mitochondrial complex I activity

Row | Structure (SMILES) | activity at 1.5 µM [%]
28 | Cc1ccc(SCCCCn2cnc3ccccc32)cc1 [Compound 7925333] | 78.5
29 | Cc1cccc(OCCn2c(C)nc3ccccc32)c1 [Compound 6285199] | 67.9

Same assay, conditions: Dose 3 µM; read-out: B. taurus mitochondrial complex I activity

Row | Structure (SMILES) | activity at 3 µM [%]
30 | Cc1ccc(SCCCCn2cnc3ccccc32)cc1 [Compound 7925333] | 70
31 | Cc1cccc(OCCn2c(C)nc3ccccc32)c1 [Compound 6285199] | 54

Same assay, conditions: Dose 15 µM; read-out: B. taurus mitochondrial complex I activity

Row | Structure (SMILES) | activity at 15 µM [%]
32 | Cc1ccc(SCCCCn2cnc3ccccc32)cc1 [Compound 7925333] | 25.1
33 | Cc1cccc(OCCn2c(C)nc3ccccc32)c1 [Compound 6285199] | 18.4

Same assay, conditions: Dose 37.5 µM; read-out: B. taurus mitochondrial complex I activity

Row | Structure (SMILES) | activity at 37.5 µM [%]
34 | Cc1ccc(SCCCCn2cnc3ccccc32)cc1 [Compound 7925333] | 9.48
35 | Cc1cccc(OCCn2c(C)nc3ccccc32)c1 [Compound 6285199] | 5.61

Same assay, conditions: Dose 75 µM; read-out: B. taurus mitochondrial complex I activity

Row | Structure (SMILES) | activity at 75 µM [%]
36 | Cc1ccc(SCCCCn2cnc3ccccc32)cc1 [Compound 7925333] | 1.13
37 | Cc1cccc(OCCn2c(C)nc3ccccc32)c1 [Compound 6285199] | 1.08

Same assay, conditions: log10 of IC50 in µM; B. taurus mitochondria

Row | Structure (SMILES) | Log IC50 B. taurus complex I [µM]
38 | Cc1ccc(SCCCCn2cnc3ccccc32)cc1 [Compound 7925333] | 0.86
39 | Cc1cccc(OCCn2c(C)nc3ccccc32)c1 [Compound 6285199] | 0.70
40 | C=CCn1c(-c2ccc(N(C)C)cc2)nc2ccccc21 [Compound 6873298] | 1.32
41 | Cc1nc2ccccc2n1Cc1ccc(C(C)C)cc1 [Compound 7353551] | 0.20
42 | CCn1c(C(C)c2ccc(CC(C)C)cc2)nc2ccccc21 (stereo not drawn) [STK951902] | 1.10

Each compound was assayed on L1 wild-type C. elegans (assay: microbe, parasite or virus in culture). Details: Caenorhabditis elegans, read-out: C. elegans KCN Survival Assay LC50, estimated from fitted dose-response curves; mean of at least two biological replicates.

Row | Structure (SMILES) | LC50 [µM]
43 | Cc1ccc(SCCCCn2cnc3ccccc32)cc1 [Compound 7925333] | 7.76
44 | Cc1cccc(OCCn2c(C)nc3ccccc32)c1 [Compound 6285199] | 14.7
45 | C=CCn1c(-c2ccc(N(C)C)cc2)nc2ccccc21 [Compound 6873298] | 5.19
46 | Cc1nc2ccccc2n1Cc1ccc(C(C)C)cc1 [Compound 7353551] | 7
47 | CCn1c(C(C)c2ccc(CC(C)C)cc2)nc2ccccc21 (stereo not drawn) [STK951902] | 8.7

These compounds were tested on ben-1 mutant (ECA882) C. elegans (assay: microbe, parasite or virus in culture). Details: Caenorhabditis elegans, read-out: C. elegans (ben-1) Development & Viability Assay LC50.
How it was run: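 L1 larvae (~2 worms/μL in M9) in liquid NGM with 2-fold concentrated E. coli HB101, compound at 1% DMSO, 6 days at 20 °C shaking 165 rpm. Well images scored as summed worm-associated pixels, normalized to DMSO controls; relative viability averaged over at least three biological replicates.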

Row | Structure (SMILES) | LC50 [µM]
48 | Cc1ccc(SCCCCn2cnc3ccccc32)cc1 [Compound 7925333] | 227
49 | Cc1cccc(OCCn2c(C)nc3ccccc32)c1 [Compound 6285199] | 205
50 | C=CCn1c(-c2ccc(N(C)C)cc2)nc2ccccc21 [Compound 6873298] | 40.6
51 | Cc1nc2ccccc2n1Cc1ccc(C(C)C)cc1 [Compound 7353551] | 91.5
52 | CCn1c(C(C)c2ccc(CC(C)C)cc2)nc2ccccc21 (stereo not drawn) [STK951902] | 644

Same assay, conditions: Caenorhabditis elegans, read-out: C. elegans ben-1(e1880) development/viability

Row | Structure (SMILES) | viability at 1 µM [%] | viability at 2 µM [%] | viability at 3.9 µM [%] | viability at 15.6 µM [%] | viability at 31.3 µM [%] | viability at 62.5 µM [%] | viability at 125 µM [%] | viability at 250 µM [%] | viability at 500 µM [%] | viability at 1000 µM [%]
53 | Cc1ccc(SCCCCn2cnc3ccccc32)cc1 [Compound 7925333] | 92 | 100 | 98 | 90.4 | 93.2 | 77.8 | 80.7 | 53.9 | 3.6 | 1
54 | Cc1cccc(OCCn2c(C)nc3ccccc32)c1 [Compound 6285199] | 99.9 | 91.6 | 97.6 | 95.5 | 93.8 | 97.6 | 100 | 64.8 |  | 

Same assay, conditions: Caenorhabditis elegans, read-out: C. elegans ben-1 log10 LC50 (converted)

Row | Structure (SMILES) | LC50 [µM]
55 | Cc1ccc(SCCCCn2cnc3ccccc32)cc1 [Compound 7925333] | 227
56 | Cc1cccc(OCCn2c(C)nc3ccccc32)c1 [Compound 6285199] | 205
57 | C=CCn1c(-c2ccc(N(C)C)cc2)nc2ccccc21 [Compound 6873298] | 40.6
58 | Cc1nc2ccccc2n1Cc1ccc(C(C)C)cc1 [Compound 7353551] | 91.6
59 | CCn1c(C(C)c2ccc(CC(C)C)cc2)nc2ccccc21 (stereo not drawn) [STK951902] | 644
